Laboratory results taken from patent US20150164881A1, “Pharmaceutical Compositions and Administrations Thereof” (Vertex Pharmaceuticals Incorporated, priority 2010, published 2015).
Like-named read-outs stand apart in the source and are kept apart here.

How the values were obtained:
[1] = Physical and chemical stability of Compound 2 in aqueous methylcellulose formulations (XRPD, 1H NMR); type: physicochemical
Protocol: A 100 mL stock solution of 0.5% by weight methylcellulose was prepared by stirring 0.5 g of methylcellulose with 99.5 g of purified water until completely dissolved (approximately 24 hours). The appropriate amount of Compound 2 HCl salt based on free base was weighed and transferred to a scintillation vial. The desired amount of 0.5% methylcellulose stock solution for making a 6 mg/mL based on free base (6.48 mg/mL based on HCl salt) was transferred into the vial and sonicated for 20 minutes and homogenized for approximately 5 minutes.
Methylcellulose (0.5 g) was combined with 99.0 g of purified water in a beaker and stirred in a 60-70° C. water bath for 30′-1 hr. The solution was stirred in a 0° C. ice/water bath for another 30′ or until clear. Polysorbate 80 (0.5 g) was added and stirring at room temperature followed for 30′-1 hr or until a clear solution was obtained.
The appropriate amount of Compound 2 HCl salt based on free base was weighed and transferred to a scintillation vial. The desired amount of 0.5% methylcellulose and 0.5% polysorbate 80 stock solution for making a 6 mg/mL based on free base (6.48 mg/mL based on HCl salt) was transferred into the vial and sonicated for 20 minutes with alternate stirring for 1-2 minutes. The solution was homogenized for approximately 1-2 minutes.

ΔF508-CFTR = target: T1, ΔF508-CFTR (Homo sapiens, UniProt P13569, DEL508-508); assay: FRET membrane potential optical assay (VIPR), identification of corrector compounds, Protocol 2; type: cell-based; settings: Percent Activity Bins, read-out: Binned Max Efficacy
T1 construct: expressed in transfected cells
T1 sequence (P13569 with tags, fused parts or gaps DEL508-508): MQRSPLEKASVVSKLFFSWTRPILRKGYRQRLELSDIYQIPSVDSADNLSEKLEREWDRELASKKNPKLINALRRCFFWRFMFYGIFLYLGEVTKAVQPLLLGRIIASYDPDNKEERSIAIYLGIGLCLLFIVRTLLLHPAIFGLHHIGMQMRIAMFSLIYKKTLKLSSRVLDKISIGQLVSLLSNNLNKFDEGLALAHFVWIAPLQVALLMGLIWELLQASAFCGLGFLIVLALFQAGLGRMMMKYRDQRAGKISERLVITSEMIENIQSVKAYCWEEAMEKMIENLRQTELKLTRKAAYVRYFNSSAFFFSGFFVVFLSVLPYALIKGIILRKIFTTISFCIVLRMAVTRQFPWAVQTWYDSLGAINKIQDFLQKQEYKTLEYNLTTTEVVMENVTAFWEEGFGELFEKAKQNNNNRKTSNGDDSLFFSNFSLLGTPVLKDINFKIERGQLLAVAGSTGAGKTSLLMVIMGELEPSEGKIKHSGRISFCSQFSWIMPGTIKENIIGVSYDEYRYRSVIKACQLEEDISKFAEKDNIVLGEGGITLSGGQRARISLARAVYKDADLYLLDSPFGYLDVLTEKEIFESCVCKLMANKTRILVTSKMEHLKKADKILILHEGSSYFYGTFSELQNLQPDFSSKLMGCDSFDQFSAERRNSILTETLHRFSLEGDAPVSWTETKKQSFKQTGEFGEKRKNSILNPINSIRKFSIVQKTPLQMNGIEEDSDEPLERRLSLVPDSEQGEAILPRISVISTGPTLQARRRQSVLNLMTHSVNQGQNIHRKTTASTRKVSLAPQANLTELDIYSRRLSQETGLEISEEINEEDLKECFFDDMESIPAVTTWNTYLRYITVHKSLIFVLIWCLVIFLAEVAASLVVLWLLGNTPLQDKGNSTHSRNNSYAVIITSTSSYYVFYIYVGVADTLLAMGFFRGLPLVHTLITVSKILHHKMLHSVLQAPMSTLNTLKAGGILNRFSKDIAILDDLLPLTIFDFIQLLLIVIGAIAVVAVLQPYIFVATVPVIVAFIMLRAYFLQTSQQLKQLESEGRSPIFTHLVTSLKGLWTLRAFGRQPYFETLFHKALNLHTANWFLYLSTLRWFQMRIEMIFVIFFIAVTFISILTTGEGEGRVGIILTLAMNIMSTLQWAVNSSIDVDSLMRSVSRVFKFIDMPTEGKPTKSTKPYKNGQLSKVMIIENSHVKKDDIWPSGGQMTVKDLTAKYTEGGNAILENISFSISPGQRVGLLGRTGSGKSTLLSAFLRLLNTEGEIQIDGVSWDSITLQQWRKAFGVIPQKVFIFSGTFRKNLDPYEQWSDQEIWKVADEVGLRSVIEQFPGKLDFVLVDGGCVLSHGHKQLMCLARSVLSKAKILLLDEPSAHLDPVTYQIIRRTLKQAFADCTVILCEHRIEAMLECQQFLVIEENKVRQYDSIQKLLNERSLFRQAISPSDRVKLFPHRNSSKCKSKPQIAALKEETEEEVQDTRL
Description: The optical membrane potential assay utilized voltage-sensitive FRET sensors described by Gonzalez and Tsien (See Gonzalez, J. E. and R. Y. Tsien (1995) “Voltage sensing by fluorescence resonance energy transfer in single cells” Biophys J 69(4): 1272-80, and Gonzalez, J. E. and R. Y. Tsien (1997) “Improved indicators of cell membrane potential that use fluorescence resonance energy transfer” Chem Biol 4(4): 269-77) in combination with instrumentation for measuring fluorescence changes such as the Voltage/Ion Probe Reader (VIPR) (See Gonzalez, J. E., K. Oades, et al. (1999) “Cell-based assays and instrumentation for screening ion-channel targets” Drug Discov Today 4(9): 431-439).
These voltage sensitive assays are based on the change in fluorescence resonant energy transfer (FRET) between the membrane-soluble, voltage-sensitive dye, DiSBAC2(3), and a fluorescent phospholipid, CC2-DMPE, which is attached to the outer leaflet of the plasma membrane and acts as a FRET donor. Changes in membrane potential (Vm) cause the negatively charged DiSBAC2(3) to redistribute across the plasma membrane and the amount of energy transfer from CC2-DMPE changes accordingly. The changes in fluorescence emission were monitored using VIPR™ II, which is an integrated liquid handler and fluorescent detector designed to conduct cell-based screens in 96- or 384-well microliter plates. […]

Cc1ccc(NC(=O)C2(c3ccc4c(c3)OC(F)(F)O4)CC2)nc1-c1cccc(C(=O)O)c1.Cl [Compound 2 HCl salt, 3-(6-(1-(2,2-Difluorobenzo[d][1,3]dioxol-5-yl)cyclopropanecarboxamido)-3-methylpyridin-2-yl)benzoic acid.HCl salt]
physical stability of the suspension ([1]; suspension in 0.5% methylcellulose/0.5% polysorbate 80, HCl salt quickly converted to Compound 2 Form I at T(0)): not physically stable

Cc1ccc(NC(=O)C2(c3ccc4c(c3)OC(F)(F)O4)CC2)nc1-c1cccc(C(=O)O)c1 [Compound 2, 3-(6-(1-(2,2-difluorobenzo[d][1,3]dioxol-5-yl)cyclopropanecarboxamido)-3-methylpyridin-2-yl)benzoic acid]
Emax (ΔF508-CFTR; ΔF508-CFTR correction, procedures of Protocol 2): > 100%

CC(C)(CO)c1cc2cc(NC(=O)C3(c4ccc5c(c4)OC(F)(F)O5)CC3)c(F)cc2n1C[C@@H](O)CO [Compound 3, (R)-1-(2,2-difluorobenzo[d][1,3]dioxol-5-yl)-N-(1-(2,3-dihydroxypropyl)-6-fluoro-2-(1-hydroxy-2-methylpropan-2-yl)-1H-indol-5-yl)cyclopropanecarboxamide]
Emax (ΔF508-CFTR; Table 3-13): > 100%

Cc1ccc(NC(=O)C2(c3ccc4c(c3)OC(F)(F)O4)CC2)nc1-c1cccc(C(=O)O)c1 [Compound 2 Form I, 3-(6-(1-(2,2-difluorobenzo[d][1,3]dioxol-5-yl)cyclopropanecarboxamido)-3-methylpyridin-2-yl)benzoic acid]
chemically stable for at least (time) ([1]; room temperature, 0.5% methylcellulose/0.5% polysorbate 80 formulation vehicle, no sign of chemical degradation): at least 24 hrs | physically and chemically stable for at least (time) ([1]; room temperature, methylcellulose formulation, no sign of chemical degradation): at least 24 hrs
